Measured values taken from the OPERA property sets (Mansouri et al. 2018).
Converted amounts (≈) assume the structure as drawn. Where a SMILES comes first, the peptide text is derived from it.

logP	solubility	SMILES
1.7		CCN(CC)CCNC(=O)c1ccc(N)c(Cl)c1
2.45		Cc1ccc(S(=O)(=O)CC(=O)c2ccccc2)cc1
2.51		CCOC(=O)n1c(-c2cscn2)nc2ccccc21
3.46		CC(C)COC(=O)n1c(-c2cscn2)nc2ccccc21
1.94		COc1ccc(C=[N+]([O-])c2ccccc2)cc1
0.98		N=C(N)NN=Cc1cccs1
2.96		c1ccc2c(c1)Cc1cccnc1-2
1.15		CC(=O)OCN1C(=O)c2ccccc2C1=O
2.16		O=C(Nc1ccc(Cl)cc1)c1cccc([N+](=O)[O-])c1O
5.02		CCCCCCCCOC(=O)c1ccc(N)cc1
4.8	0.022 mM (≈ 6.6 µg/mL)	CC(C)c1ccc2c(c1)CC[C@H]1[C@](C)(C(=O)O)CCC[C@]21C
2.45		COC(=O)c1cc2ccccc2[nH]1
-0.39		Cc1cc(=O)oc2cc(C3OC(C(=O)O)C(O)C(O)C3O)ccc12 (stereo not drawn)
4.21		CCCCCCc1ccc(N)cc1
1.94		Cc1nc2ccc([N+](=O)[O-])cc2[nH]1
0.26		O=C(O)/C=C/C(=O)c1cccnc1
-3.32		N[C@@H](Cc1cnc[nH]1)C(=O)O
	171 mM (≈ 25000 µg/mL)	COC(=O)CCC(=O)OC
0.15		Cc1cccc(O[Si]23OCCN(CCO2)CCO3)c1
0.24		CC(=O)N[C@@H](CC(C)C)C(=O)N[C@H](C(=O)N[C@@H](CC(C)C)C(N)=O)[C@@H](C)O (Ac-Leu-Thr-Leu-NH2)
4.54		OCCC(F)(F)C(F)(F)C(F)(F)C(F)(F)C(F)(F)C(F)(F)F
1.52		CC(C)OC(C)C
4.68		COc1c(Cl)c(Cl)cc(Cl)c1Cl
3.73		CCCCCCCCC(C)=O
	0.000236 mM (≈ 0.063 µg/mL)	c1ccc2c(c1)ccc1[nH]c3ccc4ccccc4c3c12
9.06		C[Si]1(C)O[Si](C)(C)O[Si](C)(C)O[Si](C)(C)O[Si](C)(C)O[Si](C)(C)O1
4.2		CCCCC(NC(Cc1ccccc1)C(=O)N1CCC(OCOC)CC1)C(=O)NC(CC1CCCCC1)C(O)CC(C(=O)NCCNc1n[nH]c(N)n1)C(C)C (stereo not drawn)

logP	solubility	SMILES
-1.33		CC(=O)Oc1ccc(CC(N)C(=O)O)cc1 (stereo not drawn)
-0.29		COC(=O)C1CCN1CC(O)Cn1ccnc1 (stereo not drawn)
5.53		c1cnc2c(c1)cc1ccc3cccc4ccc2c1c34
0.81		CC(C)OC(=O)c1cc(=O)[nH]c(=O)[nH]1
6.2		Cc1c(Cl)cc(C(C)C)c(Cl)c1Cl
0.32		OCC1CC(F)C(n2cnc3c(Cl)ncnc32)O1 (stereo not drawn)
4.3		CC(=O)O[C@@H]1C[C@H]2CC[C@]1(C)C2(C)C
-3.49		COc1ccc(N)c(S(=O)(=O)O)c1
2		CCN1CCCC1CNC(=O)c1c(OC)ccc(Br)c1O (stereo not drawn)
3.23		CC(C(=O)O)c1ccc2oc(-c3ccc(Cl)cc3)nc2c1 (stereo not drawn)
1.89		NS(=O)(=O)c1cc2c(cc1C(F)(F)F)NC(Cc1ccccc1)NS2(=O)=O (stereo not drawn)
1.3		COC(=O)c1ccsc1S(=O)(=O)NC(=O)Nc1nc(OC)nc(OC)n1
2.58		COc1ccc2c(c1)OCC1(O)c3cc4c(cc3OC21)OCO4 (stereo not drawn)
1.85		[O-][n+]1ccc(Cl)c2ccc(Cl)cc21
	0.00645 mM (≈ 1.15 µg/mL)	c1ccc2c(c1)ccc1ccccc12
	3860 mM	O=C([O-])c1ccccc1.[Na+]
-1.3		CC(=O)Nc1nc2c(ncn2COCCO)c(=O)[nH]1
-0.1		C=CCOCCO
1.1		Fc1ccc(Cn2cncn2)cc1
1.29		CC(C)NC1=NC(=O)C(=Cc2ccc([N+](=O)[O-])o2)S1
3.52		O=C1c2ccccc2C(=O)c2c(O)cccc21
3.79		Cc1ccc(C(C)C)c(OCCN(C)C)c1
-1.2		CNC[C@H](O)c1ccc(O)c(O)c1
-0.21		COC(=O)[C@@H](N)Cc1ccc(O)c(O)c1
	0.000291 mM (≈ 0.1 µg/mL)	ClC1=C(Cl)C(Cl)(Cl)C(Cl)(Cl)C1(Cl)Cl
3.65		C=CCOc1ccccc1OCC(CNC(C)C)OC(=O)C=CC (stereo not drawn)
1.74		FC(F)(F)c1cccc(Cn2cncn2)c1

SMILES	logP	solubility
OCC1CO1 (stereo not drawn)	-0.95	
N[C@@H]1[C@H]2CN(c3nc4c(cc3F)c(=O)c(C(=O)O)cn4-c3ccc(F)cc3F)C[C@@H]12	0.31	
Nc1ccc([N+](=O)[O-])cc1Cl	2.14	
Nc1ccc2[nH]ncc2c1	0.65	
CN(C)P1(=O)N(C)CCN1C	0.02	
COc1c(Cl)ccc(Cl)c1Cl	3.64	
N#CCCC#N	-0.99	
O=[N+]([O-])c1ccc2c(c1)Cc1cc([N+](=O)[O-])ccc1-2	3.35	
CC(C)(C)c1cccc(OP(=O)(Oc2ccccc2)Oc2ccccc2)c1	5.12	
O=C1NCCC2CNC(=O)C12 (stereo not drawn)	-1.95	
O=[N+]([O-])c1nc[nH]c1I	0.28	
Cc1ccccc1C1=CCN(C)CC1	3.1	
Clc1ccc(Cl)c(-c2ccccc2Cl)c1	5.48	
CCCCSP(=O)(SCCCC)SCCCC	5.7	
CCOP(=S)(OCC)Oc1ccc(N)cc1		1.49 mM (≈ 390 µg/mL)
CCOC1OC2OC3(C)CCC4C(C)C(O)CC(C1C)C24OO3 (stereo not drawn)	2.14	
c1ccc2c(c1)ccc1cc3ccc4ccccc4c3nc12	6.45	
ClC1=C(Cl)C2(Cl)C3CC=CC3C1(Cl)C2(Cl)Cl (stereo not drawn)	5.57	
Clc1cccc2c1Oc1c(Cl)c(Cl)c(Cl)c(Cl)c1O2	6.5	
N#CC(C#N)=Cc1ccco1	1.4	
Clc1ccc(Cl)c(-c2cc(Cl)c(Cl)cc2Cl)c1	5.68	
CC(C)C1(C)N=C(c2ncccc2C(=O)O)NC1=O (stereo not drawn)	0.22	
ClC1=C(Cl)C2(Cl)C3C(Cl)C(Cl)CC3C1(Cl)C2(Cl)Cl (stereo not drawn)	6.16	
